# In patent US10975056B2 (GlaxoSmithKline Intellectual Property Development Limited, priority 2016, dated 2021):
# Key:
# [1] = test system: sickle cell disease (SCD) model transgenic mice; experiment: Fetal hemoglobin in sickle cell disease transgenic mouse model, % HbF protein by HPLC; assay type: in vivo; conditions: oral, 10 or 50 mg/kg BID daily, measured by HPLC
# Description: FIG. 2A depicts the effect of Compound A on fetal hemoglobin in the transgenic mouse model.
# [2] = test system: SCD transgenic mice; experiment: Fetal hemoglobin in SCD transgenic mouse model, F-reticulocytes and F-RBCs by flow cytometry; assay type: in vivo; conditions: oral, 10 or 50 mg/kg BID daily, measured by flow cytometry
# Description: FIG. 2B depicts the effect of Compound A on fetal hemoglobin in the transgenic mouse model.
# [3] = test system: erythroid progenitor cells (EPCs); experiment: Cell growth analysis in day 7 EPCs (Cell Titer-Glo); assay type: cell-based; conditions: Homo sapiens, read-out: cell growth inhibition by 50%, average pGI50 (converted), 5 days
# Description: Day 7 EPCs were cultured in duplicate plates with serially diluted Compound A for 5 days at 37° C. Wells were then analyzed for either induction of fetal hemoglobin (HbF,HbF ELISA) or cell growth (Cell Titer-Glo). In both cases, signal was normalized to vehicle-control treated cells.
# All donors provided written informed consent for use of their samples, and the collection and use of the samples received institutional review board approval. All cryopreserved human bone marrow CD34+ cells used here were obtained from AlICells (Emeryville, Calif.) and were generally from different donors. The CD34+ cells were cultured to generate EPCs at day 7. […]
# At the time of compound treatment, frozen day 7 EPCs prepared as described above were thawed, washed once and re-suspended in complete culture media as described above with the exception of an increase of rhEPO to 3 U/mL. Cells were counted and diluted to […] for plating into assay plates. […]
# Cell growth assays were performed on cell culture plates after 5 days incubation at 37° C. with 5% CO2. […] The plates were then incubated at room temperature for 10 min prior to reading on ViewLux 1430 (Perkin Elmer) using a luminescence protocol. Average reading of control wells (16 wells in column 6 of each assay plate) containing DMSO only were used as the basal level for normalization. […]
# [4] = test system: CpG sites in or near the promoter regions of HBG1 and HBG2 gene loci; experiment: Bisulfite sequence analysis of HBG1/HBG2 DNA methylation in EPCs; assay type: cell-based, human; conditions: EPCs treated for 3 days, average of nine sites
# Description: To assay the effect of Compound A on DNA methylation, EPCs treated for 3 days with Compound A were harvested and genomic DNA was bisulfite sequenced. Methylation of nine CpG sites in or near the promoter regions of HBG1 and HBG2 gene loci were selected and analyzed based on their previous characterization as sites of DNMT1 methylation during erythropoiesis (Mabaera et al. Blood: 110 (4). 2007).
# Bisulfite Sequence Analysis
# Genomic DNA was extracted in duplicate from Day 7 EPCs cultured at 37° C. with 5% CO2 and 5% O2 for 3 days in the presence of compound using a ZYMO gDNA kit (Zymo Research, Irvine, Calif.). The isolated DNA was bisulfite converted using a Zymo EZ DNA Methylation Kit. Primer sets for Bisulfite treated regions within the HBG1 and HBG2 were designed using ABI Methyl Primer Express Software. Analyzed regions included 9 previously described sites of DNMT1-dependent DNA methylation (Mabaera et al. Blood: 110 (4). 2007). DNA was further amplified on the fluidigm and QC'd using the Agilent bio-analyzer. MiSeq was performed using the IIlumina system and the output was Analyzed using ArrayStudio v8 and CLC-GWB v8.1.
structure (smiles),measurement,setting,value
"CCc1c(C#N)c(SC(C(N)=O)c2ccccc2)nc(N(C)C)c1C#N (centres unmarked) [Compound A, 2-{[3,5-dicyano-6-(dimethylamino)-4-ethylpyridin-2-yl]sulfanyl}-2-phenylacetamide]",% HbF protein,[1],dose dependent increases
same,% F-RBCs,[2],dose dependent increases
same,% F-reticulocytes,[2],dose dependent increases
same,GI50,[3],1.26 µM
same,decrease in methylation of nine CpG sites compared with vehicle treated cells,[4],65±5%
